Results from patent US20200239420A1, “MODULATORS OF INDOLEAMINE 2,3-DIOXYGENASE” (GLAXOSMITHKLINE INTELLECTUAL PROPERTY DEVELOPMENT LIMITED, priority 2017, published 2020).

Legend:
[1] = tested on: human peripheral blood mononuclear cells (PBMC); assay: PBMC cytotoxicity assay (CellTiter-Glo); type: cell-based; details: 48 h; IFN-γ/LPS-stimulated human PBMC, 2 days, CellTiter-Glo cytotoxicity (pCC50); read-out: PBMC TOX pIC50 (converted)
Experimental: (§1) Compounds of the present invention were tested via high-throughput cellular assays utilizing detection of kynurenine via mass spectrometry and cytotoxicity as end-points. For the mass spectrometry and cytotoxicity assays, human peripheral blood mononuclear cells (PBMC) (PB003F; AllCells®, Alameda, Calif.) were stimulated with human interferon-γ (IFN-γ) (Sigma-Aldrich Corporation, St. Louis, Mo.) and lipopolysaccharide from Salmonella minnesota (LPS) (Invivogen, San Diego, Calif.) to induce the expression of indoleamine 2, 3-dioxygenase (IDO1). Compounds with IDO1 inhibitory properties decreased the amount of kynurenine produced by the cells via the tryptophan catabolic pathway. Cellular toxicity due to the effect of compound treatment was measured using CellTiter-Glo® reagent (CTG) (Promega Corporation, Madison, Wis.), which is based on luminescent detection of ATP, an indicator of metabolically active cells.
(§2) In preparation for the assays, test compounds were serially diluted 3-fold in DMSO from a typical top concentration of 1 mM or 5 mM and plated at 0.5 μL in 384-well, polystyrene, clear bottom, tissue culture treated plates with lids (Greiner Bio-One, Kremsmünster, Austria) to generate 11-point dose response curves. Low control wells (0% kynurenine or 100% cytotoxicity) contained either 0.5 μL of DMSO in the presence of unstimulated (−IFN-γ/−LPS) PBMCs for the mass spectrometry assay or 0.5 μL of DMSO in the absence of cells for the cytotoxicity assay, and high control wells (100% kynurenine or 0% cytotoxicity) contained 0.5 μL of DMSO in the presence of stimulated (+IFN-γ/+LPS) PBMCs for both the mass spectrometry and cytotoxicity assays.
(§3) Frozen stocks of PBMCs were washed and recovered in RPMI 1640 medium (Thermo Fisher Scientific, Inc., Waltham, Mass.) supplemented with 10% v/v heat-inactivated fetal bovine serum (FBS) (Thermo Fisher Scientific, Inc., Waltham, Mass.), and 1× penicillin-streptomyci antibiotic solution (Thermo Fisher Scientific, Inc., Waltham, Mass.). The cells were diluted to 1,000,000 cells/mL in the supplemented RPMI 1640 medium. 50 μL of either the cell suspension, for the mass spectrometry assay, or medium alone, for the cytotoxicity assay, were added to the low control wells, on the previously prepared 384-well compound plates, resulting in 50,000 cells/well or 0 cells/well respectively. IFN-γ and LPS were added to the remaining cell suspension at final concentrations of 100 ng/ml and 50 ng/ml respectively, and 50 μL of the stimulated cells were added to all remaining wells on the 384-well compound plates. The plates, with lids, were then placed in a 37 °C, 5% CO2 humidified incubator for 2 days.
(§4) Following incubation, the 384-well plates were removed from the incubator and allowed to equilibrate to room temperature for 30 minutes. For the cytotoxicity assay, CellTiter-Glo® was prepared according to the manufacturer's instructions, and 40 μL were added to each plate well. After a twenty-minute incubation at room temperature, luminescence was read on an EnVision® Multilabel Reader (PerkinElmer Inc., Waltham, Mass.). For the mass spectrometry assay, 10 μL of supernatant from each well of the compound-treated plates were added to 40 μL of acetonitrile, containing 10 μM of an internal standard for normalization, in 384-well, polypropylene, V-bottom plates (Greiner Bio-One, Kremsmünster, Austria) to extract the organic analytes. Following centrifugation at 2000 rpm for 10 minutes, 10 μL from each well of the acetonitrile extraction plates were added to 90 μL of sterile, distilled H2O in 384-well, polypropylene, V-bottom plates for analysis of kynurenine and the internal standard on the RapidFire 300 (Agilent Technologies, Santa Clara, Calif.) and 4000 QTRAP MS (SCIEX, Framingham, Mass.). MS data were integrated using Agilent Technologies' RapidFire Integrator software, and data were normalized for analysis as a ratio of kynurenine to the internal standard. […]

[2] = target: T1, indoleamine 2, 3-dioxygenase (IDO1) (Homo sapiens, UniProt P14902); assay: IDO1 PBMC RapidFire MS assay (kynurenine detection); type: cell-based; details: IFN-γ/LPS-stimulated human PBMC, 2 days, kynurenine by mass spectrometry; read-out: PBMC pIC50 (converted)
T1 construct: to induce the expression of indoleamine 2, 3-dioxygenase (IDO1); host or cells: human PBMC stimulated with IFN-gamma and LPS
Experimental: as §1, §2, §3, §4

Rat PK = type: in vivo; details: male Han Wistar rats, n = 3

T1 sequence (P14902 whole entry): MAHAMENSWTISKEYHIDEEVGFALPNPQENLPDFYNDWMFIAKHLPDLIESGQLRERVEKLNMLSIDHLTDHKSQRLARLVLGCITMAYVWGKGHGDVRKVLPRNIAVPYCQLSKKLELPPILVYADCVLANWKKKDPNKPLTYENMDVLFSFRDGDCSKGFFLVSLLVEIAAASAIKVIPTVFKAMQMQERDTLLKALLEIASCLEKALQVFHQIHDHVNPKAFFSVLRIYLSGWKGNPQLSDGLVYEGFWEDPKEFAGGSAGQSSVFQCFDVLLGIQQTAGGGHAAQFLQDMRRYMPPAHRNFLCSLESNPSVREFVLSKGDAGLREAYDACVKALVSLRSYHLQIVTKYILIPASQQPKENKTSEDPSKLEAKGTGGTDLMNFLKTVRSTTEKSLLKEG

## O=C(CC1CC2(CCC(c3ccnc4ccccc34)CC2)C1)Nc1ccc(Cl)cc1 (centres unmarked) [Example 5, N-(4-chlorophenyl)-2-(7-(quinolin-4-yl)spiro[3.5]nonan-2-yl)acetamide]
[1]
  IC50: > 10000 nM
[2]
  IC50: 63.1 nM

## O=C(Nc1ccc(Cl)cc1)C1CC2(CCC(c3ccnc4ccc(F)cc34)CC2)C1 (centres unmarked) [Example 6, N-(4-chlorophenyl)-7-(6-fluoroquinolin-4-yl)spiro[3.5]nonane-2-carboxamide]
[1]
  IC50: > 10000 nM
[2]
  IC50: 15.8 nM

## O=C(NC1CC2(CCC(c3ccnc4ccccc34)CC2)C1)c1ccc(Cl)cc1 (centres unmarked) [Example 3, 4-chloro-N-(7-(quinolin-4-yl)spiro[3.5]nonan-2-yl)benzamide]
[1]
  IC50: > 10000 nM
[2]
  IC50: 79.4 nM

## O=C(NC1CC2(CCC(c3ccnc4ccccc34)CC2)C1)c1ccc(Cl)s1 (centres unmarked) [Example 4, 5-chloro-N-(7-(quinolin-4-yl)spiro[3.5]nonan-2-yl)thiophene-2-carboxamide]
[1]
  IC50: > 10000 nM
Rat PK; rat, in vivo, PO, 3 mg/kg
  AUC(0-inf): 15500 ng·h/mL
  AUC(0-t): 14400 ng·h/mL
  Cmax: 1140 ng/mL
  Tmax: 3 h
  half-life: 5.89 h
[2]
  IC50: 20 nM

## O=C(Nc1ccc(Cl)cc1)[C@@H]1C[C@]12CC[C@@H](c1ccnc3ccccc31)CC2 (relative stereo) [Example 2, trans-N-(4-chlorophenyl)-6-(quinolin-4-yl)spiro[2.5]octane-1-carboxamide]
[1]
  IC50: > 10000 nM
[2]
  IC50: 126 nM

## O=C(Nc1ccc(Cl)cc1)[C@@H]1C[C@]12CC[C@H](c1ccnc3ccccc31)CC2 (relative stereo) [Example 1, cis-N-(4-chlorophenyl)-6-(quinolin-4-yl)spiro[2.5]octane-1-carboxamide]
[1]
  IC50: > 10000 nM
Rat PK; PO, 3 mg/kg
  F: 60.2%
Rat PK; rat, in vivo, IV, 1 mg/kg
  AUC(0-inf): 4660 ng·h/mL
  AUC(0-t): 4450 ng·h/mL
  MRT inf: 7.35 h
  clearance: 3.58 mL/min/kg
  half-life: 5.36 h
Rat PK; rat, in vivo, IV, 1 mg/kg, read-out: Vss
  Vd: 1.58 L/kg
Rat PK; rat, in vivo, PO, 3 mg/kg
  AUC(0-inf): 14000 ng·h/mL
  AUC(0-t): 12300 ng·h/mL
  Cmax: 1000 ng/mL
  Tmax: 1 h
  half-life: 7.16 h
[2]
  IC50: 63.1 nM
